Experimental data from PubChem BioAssay AID1626 (SRMLSC, 2009).

System: M. tuberculosis H37Rv growth inhibition
Test: M. tuberculosis H37Rv growth inhibitors, H37Rv strain (AID 1626)
Settings: for IC90: measured here: IC90 against H37Rv; for CC50: measured here: Vero cell cytotoxicity

| Structure (SMILES) | IC90 [µM] | IC50 [µM] | CC50 [µM] |
| --- | --- | --- | --- |
| CCCN(CC1CC1)C(=O)COC(=O)c1ccc2c(c1)C(=O)N(c1ccc(OCC)cc1)C2=O | > 100 | – | – |
| COC(=O)C1C(O)=C(C=Nc2ccc3ccccc3c2)C(=O)CC1(C)C (stereo unspecified) | > 100 | 33.7 | – |
| CCCCc1ccc(NC(=O)C(C)CC)cc1 (stereo unspecified) | > 100 | 6.21 | – |
| CC(=O)Nc1nnc(-c2ccc3c(c2)CCCC3)o1 | 23 | 11.9 | > 40 |
| Cc1cc(C)nc(/N=C(\N)Nc2ccc(-c3ccccc3)cc2)n1 | 11 | 2.74 | > 40 |
| CC(C)c1ccc(CNC(=O)CSCC(=O)Nc2ccc3ccccc3c2)cc1 | > 100 | 18 | – |
| Cc1ccc(NS(=O)(=O)c2cc(NC(=O)c3ccc4c(c3)NC(=O)CS4)ccc2C)c(C)c1 | > 100 | 11.1 | > 40 |
| O=C(NC1CCCCC1)C(c1ccc2ncccc2c1)N(Cc1ccc2c(c1)OCO2)C(=O)c1ccc2c(c1)OCCO2 (stereo unspecified) | > 100 | 12.7 | > 40 |
| O=C(Nc1ccc(CN2CCOCC2)cc1)c1ccc(-c2ccc(Br)cc2)o1 | 13.2 | 7.09 | 32 |
| COc1cnc(-c2ccccn2)nc1Sc1ccccc1 | 4.96 | 2.66 | 8.62 |
| N=C1SCC(=O)N1c1ncc(Cc2ccc(F)cc2)s1 | > 100 | < 0.195 | > 40 |
| CN1CCN(c2oc(COc3ccc(-c4ccccc4)cc3)nc2C#N)CC1 | 28.7 | 15.4 | > 40 |
| O=C(Cn1nc(CNc2ccc(Cl)cc2)[n+]2c1CCCCC2)c1ccc(Br)cc1 | 7.74 | 4.63 | – |
| COc1ccc(-c2ccc([C@H]3[C@@H]4C=CCC[C@@]4(C)C(=O)N3Cc3ccccc3)c(F)c2)cc1OC | > 100 | 13 | 39.2 |
| Cc1cc(NC(=O)c2c(F)cccc2Cl)n(-c2nc3ccccc3[nH]2)n1 | 25.9 | 16.5 | > 40 |
| Nc1ccc2oc(-c3cccc(Br)c3)nc2c1 | > 100 | 3.98 | – |
| CCOC(=O)c1ccc(N2CN=C3SCC(=O)N3C2)cc1 | > 100 | 11.9 | – |
| CC/C(=C\C(=O)c1cccnc1)Nc1ccc(C)c(C)c1 | – | – | > 40 |
| COc1cccc(C2C3=C(N=c4s/c(=C\c5cccc(O)c5)c(=O)n42)c2ccccc2CC3)c1OC (stereo unspecified) | 13.9 | 8.79 | 23.9 |
| O=C(CSc1ncnc2c1oc1ccccc12)OCc1ccccc1 | 26.8 | 7.79 | – |

| Structure (SMILES) | IC90 [µM] | IC50 [µM] | CC50 [µM] |
| --- | --- | --- | --- |
| COc1ccc(/C=C2/Sc3ccc(C(=O)N4CCc5ccccc5C4)cc3NC2=O)cc1 | > 100 | 20 | > 40 |
| Cn1cnc([N+](=O)[O-])c1S(=O)(=O)c1cccc(Cl)c1 | 11.8 | 10.9 | 18.7 |
| O=C(CSc1nnc(-c2cccs2)o1)OC1CCCCC1 | 7.65 | 2.23 | – |
| Cc1ccc2nc(-c3cccc(N)c3)oc2c1 | > 100 | 12.7 | > 40 |
| CCOC(=O)N1CCN(c2nc(N(c3ccccc3)c3ccccc3)nc(-n3ccnc3)n2)CC1 | 11.3 | 8.91 | > 40 |
| Cc1ccc2nc(Cl)c(CNCc3ccccc3)cc2c1 | 14.1 | 5.64 | – |
| CCCOC(=O)c1ccc(NC(=O)C(=O)NCC2CCCO2)cc1 (stereo unspecified) | > 100 | 38.7 | – |
| CCc1nnc(NC(=O)c2cc3ccccc3oc2=O)s1 | 4.5 | < 0.195 | – |
| CC(=O)Oc1c(-c2ccco2)oc2ccccc2c1=O | > 100 | 51.4 | – |
| Cc1oc2c(c1C(=O)Nc1cccc3ccccc13)CCCC2 | 7.71 | 3.58 | – |
| O=C(Oc1ccc(Cl)c2cccnc12)C12CC3CC(CC(C3)C1)C2 | 5.77 | 4.52 | > 40 |
| COc1ccc(N2CCN(c3nc(-c4cccs4)nc4ccccc34)CC2)cc1 | > 100 | – | – |
| Cc1[nH]n(-c2ccc(Br)cc2)c(=O)c1C=Nc1ccc(S(=O)(=O)Nc2nccs2)cc1 | > 100 | 10.9 | > 40 |
| CCOc1ccc(NCc2nnc(SCc3ccc(Cl)cc3)n2-c2ccccc2)cc1 | – | – | > 40 |
| O=C1C=CC(O)(c2cc(=O)c3c(O)cc(O)cc3o2)C=C1 | 6.68 | 3.87 | 6.81 |
| Cc1cc(NC(=O)C2CCCC2)n(-c2nc3ccccc3[nH]2)n1 | > 100 | 24.6 | – |
| CC1(C)Cc2c(C#N)c(N3CCN(C(=O)c4ccccc4)CC3)nc(Cc3ccccc3)c2CO1 | 18.7 | 10.5 | > 40 |
| N#C/C(=C\c1ccccn1)c1nc2ccccc2s1 | > 100 | 14.9 | > 40 |
| Cc1cccc(C)c1N1CCN(c2ccc3nnc(C(F)(F)F)n3n2)CC1 | 61.8 | 11.8 | > 40 |
| CCOC(=O)c1ccc(NC(=O)CCNC(=O)c2ccc([N+](=O)[O-])cc2)cc1 | > 100 | – | – |

| Structure (SMILES) | IC90 [µM] | IC50 [µM] | CC50 [µM] |
| --- | --- | --- | --- |
| Cc1ccc(-c2ccccc2NC(=O)CCl)o1 | > 100 | 18.6 | > 40 |
| Cc1ccccc1N=Nc1ccc(O)c2ncccc12 | > 100 | 21.1 | 0.933 |
| CCCCCn1c(=O)c(C(=O)Nc2nc3ccccc3[nH]2)c(O)c2ccccc21 | 0.757 | 0.706 | 6.6 |
| COC(=O)CCn1c(C)cc(C(=O)COc2ccccc2C(N)=O)c1C | 31.1 | 1.57 | > 40 |
| CCOC(=O)c1ccc(NCc2ccc(N(C)C)cc2)cc1 | > 100 | – | – |
| CCOC(=O)C(C)Sc1ncnc2c1nnn2-c1ccc(F)cc1 (stereo unspecified) | 21.6 | 2.47 | – |
| O=[N+]([O-])c1cc(Cl)c(O)c2ncccc12 | 24.7 | 16.3 | 21.7 |
| CCOC(=O)c1ccc(NC(=O)CCc2nc(-c3cccc(C)c3)no2)cc1 | > 100 | 2.76 | – |
| Cc1cnc(NC(=O)c2cc3c(C)nn(-c4ccccc4)c3s2)s1 | > 100 | 61 | > 40 |
| c1ccc(-c2ccc3c(c2)c2c4n3CCN=C4CCC2)cc1 | 14.9 | 10.7 | 24.7 |
| COc1cc(C)c(/C=C/C(C)=C/C=C/C(C)=C/C(=O)O)c(C)c1C | > 100 | 0.488 | > 40 |
| Cc1scc(C(=O)NCc2ccco2)c1-c1ccccc1 | 9.77 | 2.81 | – |
| O=C(COC(=O)c1sc2ccccc2c1Cl)NC1CCCCC1 | > 100 | 12.7 | > 40 |
| O=C(CCN1C(=O)C2CCCCC2C1=O)Nc1nc(-c2ccc(F)c(F)c2)cs1 (stereo unspecified) | > 100 | 47.5 | – |
| O=C(CSc1nc2ccccc2[nH]1)N1c2ccccc2Sc2ccccc21 | > 100 | 17.4 | > 40 |
| O=C(C[n+]1cc(-c2ccc(F)cc2)n2c1CCC2)N1c2ccccc2Sc2ccccc21 | > 100 | 38.7 | – |
| O=C(COc1ccc2ccccc2c1)Nc1nccs1 | > 100 | – | – |
| Nc1nc2ccccc2n1C(=O)c1ccccc1 | > 100 | 21.9 | > 40 |
| Nc1nnc(Sc2ncccc2[N+](=O)[O-])s1 | 12.9 | 9.58 | – |
| O=C(CCl)Nc1ccccc1C(=O)NCc1ccccc1 | 21.2 | 8.16 | 24.4 |
